Experimental data taken from publication PMC6757289, “Design and Characterization of SGK3-PROTAC1, an Isoform Specific SGK3 Kinase PROTAC Degrader” (ACS Chemical Biology, 2019).

Experiments:
S6K1 = S6K1 (Homo sapiens, UniProt P23443, T412E); assay: IC50 determination, biochemical kinase assay; details: for IC50: not in the presence of VHL
Description: (§1) IC50 determination was performed at the MRC PPU International Centre for Protein Kinase Profiling, according to the protocol previously described[47],[48]

SGK3 = biological target: T1, SGK3 (Homo sapiens, UniProt Q96BR1); assay: IC50 determination, biochemical kinase assay; details: not in the presence of VHL
T1 sequence (Q96BR1 1-496): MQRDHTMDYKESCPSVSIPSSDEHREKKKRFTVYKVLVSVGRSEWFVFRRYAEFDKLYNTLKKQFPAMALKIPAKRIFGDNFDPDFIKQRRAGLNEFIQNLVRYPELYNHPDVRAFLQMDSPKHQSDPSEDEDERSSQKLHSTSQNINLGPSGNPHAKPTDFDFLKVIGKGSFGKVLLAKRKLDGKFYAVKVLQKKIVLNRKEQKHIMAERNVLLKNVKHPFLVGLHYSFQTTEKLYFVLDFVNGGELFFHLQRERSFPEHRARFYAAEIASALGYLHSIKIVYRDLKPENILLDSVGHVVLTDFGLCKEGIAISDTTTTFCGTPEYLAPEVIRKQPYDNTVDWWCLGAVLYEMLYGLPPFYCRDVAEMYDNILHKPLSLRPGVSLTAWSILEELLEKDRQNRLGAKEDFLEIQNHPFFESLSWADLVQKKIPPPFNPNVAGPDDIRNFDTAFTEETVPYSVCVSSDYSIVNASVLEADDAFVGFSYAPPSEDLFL
Description: as §1

Chain of S6K1 (P23443 1-421 T412E limits assumed): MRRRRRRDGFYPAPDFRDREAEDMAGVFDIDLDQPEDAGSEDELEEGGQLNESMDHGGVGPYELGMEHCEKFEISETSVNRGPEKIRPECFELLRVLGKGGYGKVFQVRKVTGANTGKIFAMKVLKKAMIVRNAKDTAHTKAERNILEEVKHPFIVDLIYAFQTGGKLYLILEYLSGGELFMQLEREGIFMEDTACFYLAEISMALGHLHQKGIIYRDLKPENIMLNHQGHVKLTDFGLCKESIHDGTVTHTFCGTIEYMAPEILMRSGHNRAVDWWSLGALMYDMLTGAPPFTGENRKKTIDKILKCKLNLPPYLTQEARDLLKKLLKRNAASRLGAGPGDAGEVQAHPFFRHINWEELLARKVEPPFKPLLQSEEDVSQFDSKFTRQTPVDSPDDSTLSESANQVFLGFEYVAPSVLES

SMILES	IC50 (S6K1)	IC50 (SGK3)	increase of IC50 against S6K1 relative to DAT1 (S6K1; 0.16 μM to 1.8 μM)
Cc1ccc(F)c(S(=O)(=O)Nc2ccc(-c3nc(OC[C@H]4CN(CCCCCCOCCOCCOCC(=O)N[C@H](C(=O)N5C[C@H](O)C[C@H]5C(=O)NCc5ccc(-c6scnc6C)cc5)C(C)(C)C)CCO4)c4cn[nH]c4n3)cc2)c1 [SGK3-PROTAC1]	1.8 µM		approximately 10 fold
Cc1ccc(F)c(S(=O)(=O)Nc2ccc(-c3nc(OC[C@H]4CNCCO4)c4cn[nH]c4n3)cc2)c1 [308-R, reference compound]	0.001 µM	0.005 µM	
COc1ccc(Cl)c(S(=O)(=O)Nc2ccc(-c3nc(OC[C@H]4CNCCO4)c4c(C)n[nH]c4n3)cc2)c1 [290-R, reference compound]	0.01 µM	0.035 µM	
Cc1ccc(F)c(S(=O)(=O)Nc2ccc(-c3nc(OC[C@H]4CN(CCCCCCOCCOCCOCC(=O)N[C@H](C(=O)N5C[C@@H](O)C[C@H]5C(=O)NCc5ccc(-c6scnc6C)cc5)C(C)(C)C)CCO4)c4cn[nH]c4n3)cc2)c1 [cisSGK3-PROTAC1]	1.7 µM		

Second part, led by results:

IC50 (S6K1)	IC50 (SGK3)	SMILES	increase of IC50 against S6K1 relative to DAT1 (S6K1; 0.16 μM to 1.8 μM)
1.8 µM	0.73 µM	COc1ccc(Cl)c(S(=O)(=O)Nc2ccc(-c3nc(OC[C@H]4CN(CCCCCCOCCOCCOCCOCC(=O)N[C@H](C(=O)N5C[C@H](O)C[C@H]5C(=O)NCc5ccc(-c6scnc6C)cc5)C(C)(C)C)CCO4)c4c(C)n[nH]c4n3)cc2)c1 [DAT11]	
> 10 µM	> 10 µM	Cc1ccc(F)c(S(=O)(=O)Nc2ccc(-c3nc(OC[C@H]4CN(CCOCCOCCOCCOCCOCC(=O)N[C@H](C(=O)N5C[C@H](O)C[C@H]5C(=O)NCc5ccc(-c6scnc6C)cc5)C(C)(C)C)CCO4)c4cn[nH]c4n3)cc2)c1 [DAT7]	
> 10 µM	> 10 µM	Cc1ccc(F)c(S(=O)(=O)Nc2ccc(-c3nc(OC[C@H]4CN(CCOCCOCCOCCOCC(=O)N[C@H](C(=O)N5C[C@H](O)C[C@H]5C(=O)NCc5ccc(-c6scnc6C)cc5)C(C)(C)C)CCO4)c4cn[nH]c4n3)cc2)c1 [DAT6]	
> 10 µM	> 10 µM	Cc1ccc(F)c(S(=O)(=O)Nc2ccc(-c3nc(OC[C@H]4CN(CCOCCOCC(=O)N[C@H](C(=O)N5C[C@H](O)C[C@H]5C(=O)NCc5ccc(-c6scnc6C)cc5)C(C)(C)C)CCO4)c4cn[nH]c4n3)cc2)c1 [DAT5]	
0.16 µM	0.44 µM	Cc1ccc(F)c(S(=O)(=O)Nc2ccc(-c3nc(OC[C@H]4CN(CCOCCOCCOCC(=O)N[C@H](C(=O)N5C[C@H](O)C[C@H]5C(=O)NCc5ccc(-c6scnc6C)cc5)C(C)(C)C)CCO4)c4cn[nH]c4n3)cc2)c1 [DAT1]	
> 10 µM	> 10 µM	Cc1ccc(F)c(S(=O)(=O)Nc2ccc(-c3nc(OC[C@H]4CN(CCCCCCOCCCCCCOCC(=O)N[C@H](C(=O)N5C[C@H](O)C[C@H]5C(=O)NCc5ccc(-c6scnc6C)cc5)C(C)(C)C)CCO4)c4cn[nH]c4n3)cc2)c1 [DAT10]	
